How the values were obtained:
human SST-R4 = target: T1, human SST-R4 (Homo sapiens, UniProt P31391); experiment: Inhibition of 125I-Tyr11-SRIF binding to cloned human SST-R4 membranes; settings: human cloned receptor; read-out: Concentration (nM) of SST analogs to inhibit SRIF binding by 50%, SST-R 4
T1 construct: expressed in transfected cells; host or cells: CHO cells
Description: (§1) The SST analogs were tested for their potency in inhibition of the binding of ^125I-Tyr^11-SRIF (based on the method described by Raynor et. al., Molecular Pharmacology 43: 838, 1993) to membrane preparations expressing the transmembranal SST receptors (SST-R1, 2, 3, 4 or 5). The receptor preparations used for these tests were either from the cloned human receptors selectively and stably expressed in Chinese Hamster Ovary (CHO) cells or from cell lines naturally expressing the SST-Rs. […] The binding reactions were filtered, the filters were washed and the bound radioactivity was counted in β counter after addition of scintillation solution.

human cloned SST-R2 = target: T2, human cloned SST-R2 (Homo sapiens, UniProt P30874); experiment: Inhibition of 125I-Tyr11-SRIF binding to cloned human SST-R2 membranes (CHO cells); settings: human cloned receptor; read-out: Concentration (nM) of SST analogs to inhibit SRIF binding by 50%, SST-R 2
T2 construct: expressed in transfected cells; host or cells: CHO cells
Description: as §1

human SST-R5 = target: T3, human SST-R5 (Homo sapiens, UniProt P35346); experiment: Inhibition of 125I-Tyr11-SRIF binding to cloned human SST-R5 membranes; settings: human cloned receptor; read-out: Concentration (nM) of SST analogs to inhibit SRIF binding by 50%, SST-R 5
T3 construct: expressed in transfected cells; host or cells: CHO cells
Description: as §1

human SST-R3 = target: T4, human SST-R3 (Homo sapiens, UniProt P32745); experiment: Inhibition of 125I-Tyr11-SRIF binding to cloned human SST-R3 membranes; settings: human cloned receptor; read-out: Concentration (nM) of SST analogs to inhibit SRIF binding by 50%, SST-R 3
T4 construct: expressed in transfected cells; host or cells: CHO cells
Description: as §1

human SST-R1 = target: T5, human SST-R1 (Homo sapiens, UniProt P30872); experiment: Inhibition of 125I-Tyr11-SRIF binding to cloned human SST-R1 membranes; settings: human cloned receptor; read-out: Concentration (nM) of SST analogs to inhibit SRIF binding by 50%, SST-R 1
T5 construct: expressed in transfected cells; host or cells: CHO cells
Description: as §1

T1 sequence (P31391 whole entry): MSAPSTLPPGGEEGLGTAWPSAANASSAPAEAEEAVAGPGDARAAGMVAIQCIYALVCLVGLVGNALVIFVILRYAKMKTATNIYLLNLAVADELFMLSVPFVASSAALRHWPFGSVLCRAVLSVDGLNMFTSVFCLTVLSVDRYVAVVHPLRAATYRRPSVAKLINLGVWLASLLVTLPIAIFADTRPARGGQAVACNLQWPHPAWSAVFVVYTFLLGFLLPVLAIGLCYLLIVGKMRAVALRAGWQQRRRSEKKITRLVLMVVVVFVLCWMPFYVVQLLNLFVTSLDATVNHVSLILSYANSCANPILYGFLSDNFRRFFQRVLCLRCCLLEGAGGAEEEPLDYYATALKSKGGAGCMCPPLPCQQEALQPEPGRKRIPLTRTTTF
T4 sequence (P32745 whole entry): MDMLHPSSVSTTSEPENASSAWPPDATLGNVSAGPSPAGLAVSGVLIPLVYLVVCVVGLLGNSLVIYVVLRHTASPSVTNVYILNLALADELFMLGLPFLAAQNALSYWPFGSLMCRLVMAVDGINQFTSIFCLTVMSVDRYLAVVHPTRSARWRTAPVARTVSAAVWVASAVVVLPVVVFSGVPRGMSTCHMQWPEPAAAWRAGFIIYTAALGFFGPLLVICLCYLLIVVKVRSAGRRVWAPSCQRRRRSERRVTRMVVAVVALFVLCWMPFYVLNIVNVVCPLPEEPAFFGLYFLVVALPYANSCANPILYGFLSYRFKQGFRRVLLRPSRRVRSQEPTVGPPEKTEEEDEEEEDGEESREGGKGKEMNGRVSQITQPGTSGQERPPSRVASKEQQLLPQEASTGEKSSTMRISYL
T5 sequence (P30872 whole entry): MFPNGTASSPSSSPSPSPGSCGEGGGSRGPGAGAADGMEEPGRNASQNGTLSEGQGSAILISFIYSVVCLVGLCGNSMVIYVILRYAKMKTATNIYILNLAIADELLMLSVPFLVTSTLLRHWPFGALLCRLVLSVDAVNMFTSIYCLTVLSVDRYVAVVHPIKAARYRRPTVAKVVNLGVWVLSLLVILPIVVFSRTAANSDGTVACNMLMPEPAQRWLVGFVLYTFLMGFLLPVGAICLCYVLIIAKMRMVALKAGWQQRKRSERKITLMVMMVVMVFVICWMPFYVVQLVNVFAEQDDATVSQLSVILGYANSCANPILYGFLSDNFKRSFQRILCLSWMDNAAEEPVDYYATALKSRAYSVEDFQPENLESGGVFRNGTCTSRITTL
T2 sequence (P30874 whole entry): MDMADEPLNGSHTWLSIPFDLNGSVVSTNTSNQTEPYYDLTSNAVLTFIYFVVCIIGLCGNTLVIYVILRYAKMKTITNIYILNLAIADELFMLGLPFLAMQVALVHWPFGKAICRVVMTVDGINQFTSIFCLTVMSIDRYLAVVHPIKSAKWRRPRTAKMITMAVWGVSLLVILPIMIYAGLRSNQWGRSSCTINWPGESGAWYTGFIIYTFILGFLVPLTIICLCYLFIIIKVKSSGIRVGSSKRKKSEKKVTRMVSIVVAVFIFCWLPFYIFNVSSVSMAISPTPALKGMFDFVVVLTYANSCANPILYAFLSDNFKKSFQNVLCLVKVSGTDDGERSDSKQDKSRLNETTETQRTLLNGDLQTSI
T3 sequence (P35346 whole entry): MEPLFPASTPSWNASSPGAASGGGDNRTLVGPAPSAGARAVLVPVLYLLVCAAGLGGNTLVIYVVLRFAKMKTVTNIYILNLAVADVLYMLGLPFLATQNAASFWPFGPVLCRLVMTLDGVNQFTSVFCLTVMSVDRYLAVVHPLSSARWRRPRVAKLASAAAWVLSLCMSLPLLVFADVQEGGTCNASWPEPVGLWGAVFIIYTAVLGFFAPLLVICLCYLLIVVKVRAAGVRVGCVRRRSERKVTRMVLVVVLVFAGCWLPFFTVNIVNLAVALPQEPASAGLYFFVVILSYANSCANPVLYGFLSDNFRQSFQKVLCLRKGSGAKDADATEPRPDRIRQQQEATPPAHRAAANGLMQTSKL

IC50 (human SST-R4): 123 nM
IC50 (human cloned SST-R2): 1.5 nM
IC50 (human SST-R5): 186 nM
IC50 (human SST-R3): 323 nM
IC50 (human SST-R1): 349 nM
SMILES: C[C@@H](O)[C@@H]1NC(=O)[C@H](CCCCN)NC(=O)[C@@H](Cc2c[nH]c3ccccc23)NC(=O)[C@H](Cc2ccccc2)NC(=O)[C@@H]2CSSC[C@H](NC1=O)C(=O)N([C@@H](Cc1ccccc1)C(N)=O)CCCNC(=O)CCCN[C@@H](Cc1ccccc1)C(=O)N2 [PTR 3205, PheC3-Cys-Phe-(D)Trp-Lys-Thr-Cys-PheN3-NH2]

Reference: patent US20040102364A1, “Backbone cyclized radiolabelled somatostatin analogs” (priority 2001, published 2004)
